Results: patent publication US20210253454A1, “MICELLAR DELIVERY METHOD” (EVONIK OPERATIONS GMBH, priority 2018, published 2021)

Columns and labels:
[1] = test system: Pseudomonas aeruginosa (ATCC 15442) biofilm; experiment: Biocidal activity on biofilm, CDC Biofilm reactor, glass coupons, 1-4 hrs; type: cell-based; conditions: initial 100 ppm
Source text: We evaluated the biocidal activity of PAA-surfactant solutions on microbial biofilms using a CDC Biofilm reactor from BioSurface Technologies. This reactor supplies a continuous flow of nutrient broth through a container that exposes bacteria growing on glass coupons to shear forces. The setup mimics at least two features typical for oilfield operations: a renewable nutrient source and shear forces applied to the biofilms. All reactor parts were cleaned with a solution of 1% Neutrad lab soap and rinsed well with deionized water, and allowed to dry prior to autoclaving on a 20 minutes gravity cycle to sterilize.
Pseudomonas aeruginosa (ATCC 15442) biofilm was grown for 48 hours in the biofilm reactor on glass coupons at 25° C. A solution containing 300 mg/L of sterile trypticase soy broth (TSB) was used as nutrient feed. 1 mL of the working inoculum of P. aeruginosa was added through the inoculation port. The first step was a 24 hours batch phase followed by 24 hours in continuous flow mode, when 100 mg/L TSB solution was pumped into the stirring reactor for about 24 hours at room temperature to create a matured biofilm on the coupon surfaces.
(§1) Upon completion of the biofilm growth phase, the coupons were removed and rinsed by immersion into 30 mL dilution buffer. Coupons were placed into sterile centrifuge test tubes and 4 mL biocide or buffer were added. Then the tubes were vortexed on low speed to ensure complete coverage of the coupon. At the appropriate time, the biocide was poured off, and reserved for chemical analysis of PAA and hydrogen peroxide. Then, a 10 mL aliquot of chemical neutralizing Letheen broth with 0.5% sodium thiosulfate was added to each tube. One treated coupon from each treatment group was removed at final time point for visual analysis.
The compositions were diluted with deionized water before use, such that the initial concentration of PAA-surfactant active ingredient was 100 ppm.
In order to recover remaining viable bacteria from the coupons, the test tubes with coupons were vortexed for 30 s on highest setting, and then sonicated for 30 s at 45 kHz. This treatment was then repeated twice. After that, the broth was diluted serially into Butterfield's buffer, and the dilutions plated on 3M™ Petrifilm™ Aerobic Count Plates. The plates were incubated for 48 hours at 35° C., and then counted. Calculations were performed to obtain the Log10 CFU/mL of the solutions at each time point.

[2] = Oxidizer (PAA, hydrogen peroxide) concentration in treatment solution during biofilm test; type: physicochemical; conditions: initial 100 ppm
Procedure: as §1
PAA and Hydrogen peroxide concentrations were monitored during the test by using Chemetrics test kits K-7913F and K-5543.
We further evaluated the biocidal activity of PAA-surfactant solutions on microbial biofilms using a CDC Biofilm reactor from BioSurface Technologies as described in Example 9. The three biocide solutions were also as described in Example 9, but the contact time was increased to about 72 hours under agitation. Additionally, for this test, the biocide aliquot was increased from the standard method amount of 4 mL up to 30 mL. These adjustments were made to more accurately simulate expected field conditions. The recovery was performed as described in the Example 8. […] Chemical analysis indicated only a slight reduction in concentrations of both PAA and hydrogen peroxide over the 72-hour time period.

Question: Which Log10 reduction ([1]; 1 hrs) does the source give for CC(=O)OO [PAA, peracetic acid] here?
Answer: 1.4 Log10

Question: And the Log10 remaining ([1]; 1 hrs)?
Answer: 7.8 Log10 CFU/mL

Question: And the Log10 reduction ([1]; 2 hrs)?
Answer: 2.2 Log10

Question: What about the Log10 remaining ([1]; 2 hrs) of the same compound?
Answer: 7.0 Log10 CFU/mL

Question: And the Log10 reduction ([1]; 4 hrs)?
Answer: 3.1 Log10

Question: And the Log10 remaining ([1]; 4 hrs)?
Answer: 6.1 Log10 CFU/mL

Question: And the “H2O2, ppm” value ([2]; 1 hrs)?
Answer: 35 ppm

Question: And the “PAA, ppm” value ([2]; 1 hrs)?
Answer: 63 ppm

Question: And the “H2O2, ppm” value ([2]; 2 hrs)?
Answer: 27 ppm

Question: And the “PAA, ppm” value ([2]; 2 hrs)?
Answer: 54 ppm

Question: What about the “H2O2, ppm” value ([2]; 4 hrs) of the same compound?
Answer: 10 ppm

Question: What about the “PAA, ppm” value ([2]; 4 hrs) of the same compound?
Answer: 30 ppm
